The test system of data set [1] is anesthetized rat. The data set can be described thus: Effect on cystometrogram in anesthetized rat (Test 2). To be noted: for bladder capacity (relative % of before value): 0.01 mg/kg intravenously, N = 5. Type of data set: in vivo. From the text: Effect on Cystometrogram in Anesthetized Rat Male S.D. rats, aged 7-9 weeks, were anesthetized with urethane (1.2 g/kg, sc) and supine on a board. After a midline incision in the abdomen, the bladder was exposed. Polyethylene catheters, which were used to measure the intravesical pressure and to infuse saline, were inserted into the bladder through a small incision at the apex of the bladder dome. The bladder catheters were connected to an infusion pump and pressure transducer respectively. Saline was infused a rate of 5.0 ml/hr for 1 hour. Cystometrography was performed at 15 minutes intervals for 1 hour. The bladder capacity (volume) was calculated from the time required to fill the bladder. The test compound was administered intravenously via femoral vein.

Data set [2] relates to anesthetized rat. Kind of data set: Effect on rhythmic contraction of bladder in anesthetized rat (Test 3). Type of data set: in vivo. To be noted: dose of 0.1 mg/kg intravenously. From the text:
Effect on Rhythmic Contraction of Bladder in Anesthetized Rat
Male S.D. rats, aged 7-8 weeks, were anesthetized with urethane (1.2 g/kg, ip) and supine on a board. After a midline incision in the abdomen, the bladder was exposed. Balloon catheter, which was used to measure the intravesical pressure, was inserted into the bladder through a small incision at the apex of the bladder dome. The balloon was then inflated with distilled water and the balloon port of the catheter was connected to pressure transducer. Rhythmic contraction of bladder induced by increase intravesical pressure to 10 mmHg. The test compound was administered intravenously via femoral vein.

Data set [3] concerns anesthetized dog. The data set can be described thus: Effect on the increase in intravesical pressure induced by carbachol in anesthetized dog (Test 1). To be noted: for Increase in intravesical pressure (mmHg): 0.01 mg/kg intravenously 5 minutes before carbachol (1.8 μg/kg); for effect on the increase in intravesical pressure induced by carbachol (in words): anesthetized dog, 0.01 mg/kg intravenously. Type of data set: in vivo. The method, then: Effect on the increase in intravesical pressure induced by carbachol in anesthetized dog
Female Beagle dogs weighing 8.0-15.0 kg were fasted for 24 hours and maintained under halothane anesthesia. A 12F Foley catheter was lubricated with water soluble jelly, inserted into the urethral orifice and advanced approximately 10 cm until the balloon tip was placed well inside the bladder. The balloon was then inflated with 5 ml of room air and catheter slowly withdrawn just part the first resistance that is felt at the bladder neck. Urine was completely drained out throught the catheter, and 30 ml of biological saline was infused. The catheter was connected to pressure transducer, and intravesical pressure was continuously recorded. The test compound was injected intravenously at 5 minutes before the administration of carbachol (1.8 μg/kg).
According to a similar manner to that of Test 1 described before, the effects of the present compounds on the intravesical pressure were evaluated.

The term melting point denotes the temperature, or range, at which the solid turns liquid.

For the compound `Cl.Oc1cc2c(cc1Cl)CC(N(Cc1ccccc1)C[C@H](O)COc1ccccc1)CCC2` (stereo partly drawn), the melting point was 94 to 99 °C (dec.).

With `Cl.Oc1ccc2c(c1)CCCC(NC[C@H](O)COc1ccccc1)C2` (stereo partly drawn), the melting point is 53.5 °C (dec.).

Take `CCOC(=O)COc1ccc2c(c1)C[C@@H](NC[C@H](O)c1cccc(Cl)c1)CC2.Cl` [compound (4), 2(S)-[ (7-Ethoxycarbonylmethoxy-1,2,3,4-tetrahydro-naphthalen-2-yl)amino]-1(R)-(3-chlorophenyl)ethanol hydrochloride]: the “bladder capacity (relative % of before value)” value in data set [1] (time 0-15 minutes, vehicle 128) amounted to 152%; in data set [1] (time 15-30 minutes, vehicle 111) it was 146%; in data set [1] (time 30-45 minutes, vehicle 114), 143%; in data set [1] (time 45-60 minutes, vehicle 104), 151%. Moreover, in data set [1] (dose of 0.01 mg/kg intravenously), the “effect on bladder capacity (in words)” value is listed as “increased in bladder capacity”.

Turning to `COC(=O)COc1ccc(C[C@@H](C)NC[C@H](O)c2cccc(Cl)c2)cc1` [compound (5), Methyl 4-[2(R)-[2-(3-chlorophenyl)-2(R)-hydroxyethyl-amino]propyl]phenoxyacetate], in data set [2], the “effect on contractile force of bladder (in words)” value was “decreased in contractile force of bladder”.

Turning to `Cl.O=c1[nH]c2cccc(OCC(O)CNC3CCCc4cc(O)ccc4C3)c2[nH]1` (stereo not drawn), the melting point was 100.5 °C (dec.).

Consider `CS(=O)(=O)Nc1cc(C(O)CNCCOc2ccc3c(c2)[nH]c2ccccc23)ccc1O.Cl` (stereo not drawn) [Test Compound (3), N-[5-[2-[2-(9H-Carbazol-2-yloxy)ethylamino]-1-hydroxyethyl]-2-hydroxyphenyl]methanesulfonamide hydrochloride], for which, in data set [3] (Control 5.0 ± 0.5, N = 3, P<0.01 vs Control), the “Increase in intravesical pressure (mmHg)” value worked out at 1.7 ± 0.6 mmHg. Also, the “effect on the increase in intravesical pressure induced by carbachol (in words)” value (from here on “effect on the increase”) in data set [3] was “inhibited the increase in intravesical pressure induced by carbachol”.

Consider “N-butyl-2-[8-[[(2S)-2-hydroxy-3-[4-hydroxy-3-methanesulfonylamino]phenoxypropyl]amino]-6,7,8,9-tetrahydro-5H-benzocyclohepten-2-yloxy]acetamide hydrochloride [Example 155]”, for which the “ED50 (effect on the intravesical pressure)” value in data set [3] (similar manner to Test 1, anesthetized dog) was 0.0108 mg/kg.

As for `COc1ccc(C(Cc2ccccc2)NC[C@H](O)c2ccc(O)c(NS(C)(=O)=O)c2)cc1OC` (stereo partly drawn) [Test Compound (1), N-[5-[2-[l-(3,4-Dimethoxyphenyl)-2-phenylethylamino]-1(R)-hydroxyethyl]-2-hydroxyphenyl]methanesulfonamide], the “Increase in intravesical pressure (mmHg)” value in data set [3] (Control 5.0 ± 0.9, N = 3, P<0.01 vs Control) is 1.8 ± 0.3 mmHg. The “effect on the increase” value in data set [3] is recorded as “inhibited the increase in intravesical pressure induced by carbachol”.

On to `Cl.Oc1cccc2c1CCCC(NC[C@H](O)COc1ccccc1)C2` (stereo partly drawn), for which the melting point is 73 to 84 °C (dec.).

On to `O=c1[nH]c2cccc(OCC(O)CN(Cc3ccccc3)C3CCCc4cc(O)ccc4C3)c2[nH]1` (stereo not drawn) [Example 11, 1-[N-benzyl-N-(6,7,8,9-tetrahydro-2-hydroxy-5H-benzocyclohepten-6-yl)amino]-3-(1,3-dihydro-2-benzoimidazolon-4-yloxy)-2-propanol], for which the melting point was 111 to 133 °C (dec.).

For `O=c1n(CCCC2CCCC2)nnn1-c1ccc(S(=O)(=O)Nc2ccc(CCNC[C@H](O)c3cccnc3)cc2)cc1` [Test Compound (2), N-[4-[2-[2(R)-Hydroxy-2-(pyridin-3-yl)ethylamino]ethyl]-phenyl]-4-[4-(3-cyclopentylpropyl)-5-tetrazolon-1-yl]-benzenesulfonamide], in data set [3] (Control 5.0 ± 1.2, N = 4, P<0.05 vs Control), the “Increase in intravesical pressure (mmHg)” value was 2.3 ± 1.5 mmHg. The “effect on the increase” value in data set [3] was “inhibited the increase in intravesical pressure induced by carbachol”.
